Reference: publication PMC5342227, “Polymer micelle formulation for the proteasome inhibitor drug carfilzomib: Anticancer efficacy and pharmacokinetic studies in mice” (PLoS ONE, 2017)

Tests used:
[1] = set-up: method as in 2 sources, one per row (each row's own in cited_ref): ref 14 = [14]; PMID 23386784; doi:10.2147/BTT.S24580; 14 Nooka A , Gleason C , Casbourne D , Lonial S . Relapsed and refractory lymphoid neoplasms and multiple myeloma with a focus on carfilzomib . Biologics 2013; 7 : 13 – 32 . 10.2147/BTT.S24580 233867 ||| ref 6 = [6]; PMID 21752943; doi:10.1124/dmd.111.039164; 6 Yang J , Wang Z , Fang Y , Jiang J , Zhao F , Wong H , et al Pharmacokinetics, pharmacodynamics, metabolism, distribution, and excretion of carfilzomib in rats . Drug Metab Dispos . 2011; 39 : 1873; details: cited from earlier work
[2] = molecular target: T1, proteasome catalytic subunit β5 (Homo sapiens, UniProt P20618+P28074); assay: Immunoblot mobility shift of covalently modified β5 in tumor lysates; set-up: species or system human (H460 xenograft in mice); details: positive control: tumor lysates incubated with 50 nM CFZ for 2 h in vitro
T1 construct: tumor tissue lysates (10 μg of total protein) were resolved using 12.5% SDS-PAGE; from tissue; host or cells: excised H460 xenograft tumour tissue from NOD/SCID mice
Procedure: Briefly, tumor tissue lysates (10 μg of total protein) were resolved using 12.5% SDS-PAGE and transferred onto a PVDF membrane (Bio-Rad Laboratories). Membranes were blocked in 5% milk in Tris-buffered saline containing 0.05% Tween-20 (TBST) and probed with the following antibodies; for β5 (dilution 1:1000, Abcam) and β-actin (dilution 1:1000, Cell Signaling). Membranes were washed with TBST and probed with the corresponding secondary antibodies conjugated with horseradish peroxidase. Bound antibodies were visualized using an enhanced chemiluminescence substrate (Thermo Fisher Scientific).

## Carfilzomib [CFZ]
[1]; background statement, no reference given
  solubility in aqueous media: practically insoluble
[1]; following intravenous injection, peptide backbone cleavage and epoxide hydrolysis
  share of CFZ eliminated from systemic circulation within 30 min: > 95%
[1]; mice
  maximum tolerated dose: 5 mg/kg
[2]
  β5 band mobility compared with negative control (DMSO): showed a mobility shift
